Structures are written as SMILES. pIC50, pKi: −log10 of the molar value.

Usually inhibition stands for the share of the control response that was lost under treatment. A higher inhibition goes with a response far below the control. The pKi is −log10 of the Ki, conventionally taken in molar units. By pIC50 is commonly meant the negative decadic logarithm of the IC50, by convention in mol/L. Broadly, the amount remaining is the share of the starting amount still present when the sample was taken.

Data set [1] in a line: Drug metabolism in C57BL/6 mouse liver microsomes assessed as (2S,3S,4S,5R)-3,4,5-trihydroxy-6-(7-(methyl(3-phenylpropyl)amino)-6,7,8,9-tetrahydro-5H-benzo[7]annulen-5-yloxy)tetrahydro-2H-pyran-2-carboxylic acid formation at 25 uM incubated for 90 mins in presence of phase 1 and 2 cofactors NADPH and UDPGA by LC-qTOF/MS analysis. In kind it is ADME, Microsome. The following applies: 1.5 h.

The species named for a further data set is Sus scrofa. The data set is described as follows: Displacement of [3H]-(+)-MK-801 from PCP binding site of NMDA receptor in pig brain cortex membranes at 1 uM after 120 mins by solid scintillation counting method relative to control. In kind it is cell membranes. (Loss of bound radioactivity is the signal in a displacement assay; it reports binding, not function.)

Data set [2] is described as follows: Displacement of [3H]ifenprodil from GluN1A/GluN2B (unknown origin) expressed in mouse L(tk-) cell membranes after 120 mins by solid scintillation counting method. Set-up: species or system Homo sapiens.
Data set [3] is described as follows: Drug metabolism in C57BL/6 mouse liver microsomes assessed as hydroxylation at aromatic ring at 25 uM incubated for 90 mins in presence of phase 1 cofactor NADPH by LC-qTOF/MS analysis. The following applies: 1.5 h. In kind it is ADME, Microsome. For orientation: Liver microsomes are a subcellular fraction often used to study metabolism.
A short description of data set [4]: Drug metabolism in C57BL/6 mouse liver microsomes assessed as hydroxylation at aliphatic ring at 25 uM incubated for 90 mins in presence of phase 1 cofactor NADPH by LC-qTOF/MS analysis. In kind it is ADME, Microsome. As to conditions: 1.5 h.
Data set [5] deals with T1, Sigma intracellular receptor 2 (Rattus norvegicus, UniProt Q5U3Y7).
T1 sequence (Q5U3Y7 whole entry): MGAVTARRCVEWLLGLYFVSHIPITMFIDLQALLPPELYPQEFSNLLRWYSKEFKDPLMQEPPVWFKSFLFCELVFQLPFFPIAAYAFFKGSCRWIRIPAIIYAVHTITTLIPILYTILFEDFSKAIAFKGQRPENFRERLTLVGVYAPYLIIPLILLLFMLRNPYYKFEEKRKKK
The data set is described as follows: Displacement of [3H]di-o-tolylguanidine from sigma2 receptor in rat liver membranes measured after 120 mins by solid scintillation counting method. The data set is classed as cell membranes.

Data set [6] in a line: Retention time of compound in C57BL/6 mouse liver microsomes at 25 uM by LC-qTOF/MS analysis. In kind it is ADME, Microsome.
Data set [7] in a line: Cytoprotection against glutamate/glycine-induced cytotoxicity against mouse LTK cells expressing GluN1a/GluN2B preincubated 30 mins followed by glutamate/glycine addition and measured after 6 hrs by LDH assay. The data set is classed as functional, cell-based.
The nature of data set [8]: Drug metabolism in C57BL/6 mouse liver microsomes assessed as glucuronide metabolite formation at 25 uM incubated for 90 mins in presence of phase 1 and 2 cofactors NADPH and UDPGA by LC-qTOF/MS analysis. The data set is classed as ADME, Microsome. The following applies: 1.5 h.
A short description of another data set: in vitro. As to conditions: C57BL/6, mouse, liver microsomes.
Data set [9] has as its target Sigma non-opioid intracellular receptor 1 (Cavia porcellus, UniProt Q60492). The data set can be described thus: Displacement of [3H]-(+)-pentazocine from sigma1 receptor in guinea pig brain cortex membranes incubated for 120 mins by solid scintillation counting method. In kind it is cell membranes.
Data set [10] is described as follows: Drug metabolism in C57BL/6 mouse liver microsomes assessed as hydroxylation at aliphatic and aromatic ring at 25 uM incubated for 90 mins in presence of phase 1 cofactor NADPH by LC-qTOF/MS analysis. The following applies: 1.5 h. In kind it is ADME, Microsome.
Data set [11] in a line: Cytoprotection against glutamate/glycine-induced cytotoxicity against mouse LTK cells expressing GluN1a/GluN2B assessed as inhibition of cell growth measured after 12 hrs by LDH assay. The data set is classed as functional, cell-based.
Data set [12] is described as follows: Cytoprotection against glutamate/glycine-induced cytotoxicity against mouse LTK cells expressing GluN1a/GluN2B at 10 uM measured after 30 mins by LDH assay relative to control. The data set is classed as functional.
The target of data set [13] is Sigma non-opioid intracellular receptor 1 (Cavia porcellus) (UniProt Q60492). The data set can be described thus: Displacement of [3H]-(+)-pentazocine from sigma1 receptor in guinea pig brain cortex membranes at 1 uM incubated for 120 mins by solid scintillation counting method relative to control. The data set is classed as cell membranes.
Data set [14] is described as follows: Retention time of (2S,3S,4S,5R)-3,4,5-trihydroxy-6-(7-(methyl(3-phenylpropyl)amino)-6,7,8,9-tetrahydro-5H-benzo[7]annulen-5-yloxy)tetrahydro-2H-pyran-2-carboxylic acid metabolite in C57BL/6 mouse liver microsomes at 25 uM by LC-qTOF/MS analysis. The data set is classed as ADME, Microsome.

Sigma non-opioid intracellular receptor 1, sequence (Q60492 whole entry): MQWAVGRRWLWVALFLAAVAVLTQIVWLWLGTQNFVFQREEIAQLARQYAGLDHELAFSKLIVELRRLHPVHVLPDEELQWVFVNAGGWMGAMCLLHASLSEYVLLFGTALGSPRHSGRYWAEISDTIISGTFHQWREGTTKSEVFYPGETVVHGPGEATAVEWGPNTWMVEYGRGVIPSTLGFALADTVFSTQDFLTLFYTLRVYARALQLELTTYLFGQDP
Sigma non-opioid intracellular receptor 1 (Cavia porcellus), sequence (Q60492 whole entry): as above
Description for in vitro: Metabolic stability in C57BL/6 mouse liver microsomes assessed as parent compound remaining at 25 uM incubated for 90 mins in presence of NADPH by LC-qTOF/MS analysis

Take `CN(CCCc1ccccc1)C1CCc2ccccc2C(O)C1` (mixture of isomers): the Drug metabolism result in data set [1], in data set [3], in data set [4], in data set [8] and in data set [10] was “Metabolite_Detected” in each case. Besides, the inhibition in the data set filed under Sus scrofa amounted to 0%. In addition, the negative logarithm of the Ki (pKi) in data set [2] is 7.31; in data set [5] it was 7.46; in data set [9], 7.41. This molecule registered a Retention_time in data set [6] of 5.1 min. In [7], this molecule showed a pIC50 of 6.24. Also, the fraction remaining at 1.5 h, 25 µM in the data set “in vitro” is 17%.
With `COc1ccc2c(c1)CC[C@@H](NCCCc1ccccc1)C[C@H]2O` (racemic), the pIC50 in data set [11] was 7.92. In addition, the pKi in data set [2] is 7.80.
In the case of `OC1Cc2ccccc2CCC1NCCCc1ccccc1` (mixture of isomers), the inhibition in the data set listed under Sus scrofa turned out to be 0%. Besides, the pKi in data set [2] is 6.42; in data set [5], 7.00; in [9], 5.89. In addition, the Activity in [12] is given as 22%.
Regarding `OC1Cc2ccccc2CCC1NCCCCc1ccccc1` (mixture of isomers), the inhibition in the data set listed under Sus scrofa was determined as 0%. Besides, the figures for the pKi in data set [2], in data set [5] and in data set [9] were 6.57, 7.00 and 6.37, respectively. This molecule also showed an Activity in data set [12] of 0%.
Take `c1ccc(CCCNC2CCc3ccccc3CC2)cc1`: the pKi in [2] is 7.80. Besides, the Activity in [12] is listed as 29%.
In the case of `OC(CN1CCC(Cc2ccc(F)cc2)CC1)c1ccc(Cl)cc1` (stereo unspecified) [ELIPRODIL], in data set [2], the negative logarithm of the Ki (pKi) is 7.89.
As for `OC1c2ccccc2CCC(NCCCc2ccccc2)C1O` (mixture of isomers), the inhibition in the data set filed under Sus scrofa came out at 14%; in data set [13], 17%. Besides, the negative logarithm of the Ki (pKi) in data set [2] is 5.70; in data set [5], 6.20. In data set [12], this molecule registered an Activity of 41%.
`OC1CC(NCCCc2ccccc2)CCc2ccccc21` (mixture of isomers): the inhibition in the data set listed under Sus scrofa was 0%. In addition, the negative logarithm of the Ki (pKi) in data set [2] was 7.11; in data set [5] it was 7.55; in data set [9], 6.80. Also, the negative logarithm of the IC50 (pIC50) in [7] was 5.80.
On to `CN(CCCc1ccccc1)C1CCc2ccccc2C(O[C@@H]2O[C@H](C(=O)O)[C@@H](O)[C@H](O)[C@H]2O)C1` (stereo partly specified), for which the Retention_time in data set [14] worked out at 4.8 min.
In data set [2], `CC(C(O)c1ccc(O)cc1)N1CCC(Cc2ccccc2)CC1` (stereo unspecified) [IFENPRODIL] had a negative logarithm of the Ki (pKi) of 8.00.
In the data set listed under Sus scrofa, `OC1CC(NCCCCc2ccccc2)CCc2ccccc21` (mixture of isomers) came in with an inhibition of 0%. Besides, the negative-log Ki (pKi) in data set [5] is 7.00; in data set [9] it was 6.85. The molecule further registered an Activity in data set [12] of 12%.
In turn, `CN(CCCCc1ccccc1)C1CCc2ccccc2C(O)C1` (mixture of isomers) yielded an inhibition in the data set listed under Sus scrofa of 0%. Further, the negative logarithm of the Ki (pKi) was 7.19 in data set [2], 7.18 in data set [5] and 7.48 in data set [9]. Moreover, in [12], the Activity is 10%.
Take `Oc1ccc2c(c1)CCC(NCCCc1ccccc1)CC2` (stereo unspecified): in data set [2], the negative logarithm of the Ki (pKi) was 7.55. In addition, the pIC50 in data set [7] is under 5.00.
Take `COc1ccc2c(c1)CCC(NCCCc1ccccc1)CC2` (stereo unspecified): in data set [11], the pIC50 was 7.54. Also, in [2], the pKi was 8.00.
In [2], `Oc1ccc2c(c1)CCC(NCCCCc1ccccc1)CC2` (stereo unspecified) gave a negative logarithm of the Ki (pKi) of 7.68. This molecule had a negative logarithm of the IC50 (pIC50) in data set [7] of 5.52.
On the same counts, the results for `C[C@@H](CN1CCC(Cc2ccccc2)CC1)[C@@H](O)c1ccc(O)cc1` are 6.77 and 7.89.

The values are drawn from ChEMBL document CHEMBL4312002, “Impact of hydroxy moieties at the benzo[7]annulene ring system of GluN2B ligands: Design, synthesis and biological evaluation” (Bioorg Med Chem, 2019).
